# Source: patent US9073863B2, “Cyanoquinoline compounds having activity in correcting mutant-CFTR processing and increasing ion transport and uses thereof” (The Regents of the University of California, priority 2011, dated 2015)
# Legend:
# Format in all cases: cell-based
# ΔF508-CFTR [1] = molecular target: T1, ΔF508-CFTR (Homo sapiens, UniProt P13569, DEL508-508); assay: Short-circuit current (apical membrane chloride current) corrector assay in ΔF508-CFTR expressing FRT cells; details: 10 μM, 18-24 h incubation
# T1 construct: expressed in transfected cells; host or cells: Fischer rat thyroid (FRT) epithelial cells, stably transfected
# T1 sequence (P13569 with tags, fused parts or gaps DEL508-508): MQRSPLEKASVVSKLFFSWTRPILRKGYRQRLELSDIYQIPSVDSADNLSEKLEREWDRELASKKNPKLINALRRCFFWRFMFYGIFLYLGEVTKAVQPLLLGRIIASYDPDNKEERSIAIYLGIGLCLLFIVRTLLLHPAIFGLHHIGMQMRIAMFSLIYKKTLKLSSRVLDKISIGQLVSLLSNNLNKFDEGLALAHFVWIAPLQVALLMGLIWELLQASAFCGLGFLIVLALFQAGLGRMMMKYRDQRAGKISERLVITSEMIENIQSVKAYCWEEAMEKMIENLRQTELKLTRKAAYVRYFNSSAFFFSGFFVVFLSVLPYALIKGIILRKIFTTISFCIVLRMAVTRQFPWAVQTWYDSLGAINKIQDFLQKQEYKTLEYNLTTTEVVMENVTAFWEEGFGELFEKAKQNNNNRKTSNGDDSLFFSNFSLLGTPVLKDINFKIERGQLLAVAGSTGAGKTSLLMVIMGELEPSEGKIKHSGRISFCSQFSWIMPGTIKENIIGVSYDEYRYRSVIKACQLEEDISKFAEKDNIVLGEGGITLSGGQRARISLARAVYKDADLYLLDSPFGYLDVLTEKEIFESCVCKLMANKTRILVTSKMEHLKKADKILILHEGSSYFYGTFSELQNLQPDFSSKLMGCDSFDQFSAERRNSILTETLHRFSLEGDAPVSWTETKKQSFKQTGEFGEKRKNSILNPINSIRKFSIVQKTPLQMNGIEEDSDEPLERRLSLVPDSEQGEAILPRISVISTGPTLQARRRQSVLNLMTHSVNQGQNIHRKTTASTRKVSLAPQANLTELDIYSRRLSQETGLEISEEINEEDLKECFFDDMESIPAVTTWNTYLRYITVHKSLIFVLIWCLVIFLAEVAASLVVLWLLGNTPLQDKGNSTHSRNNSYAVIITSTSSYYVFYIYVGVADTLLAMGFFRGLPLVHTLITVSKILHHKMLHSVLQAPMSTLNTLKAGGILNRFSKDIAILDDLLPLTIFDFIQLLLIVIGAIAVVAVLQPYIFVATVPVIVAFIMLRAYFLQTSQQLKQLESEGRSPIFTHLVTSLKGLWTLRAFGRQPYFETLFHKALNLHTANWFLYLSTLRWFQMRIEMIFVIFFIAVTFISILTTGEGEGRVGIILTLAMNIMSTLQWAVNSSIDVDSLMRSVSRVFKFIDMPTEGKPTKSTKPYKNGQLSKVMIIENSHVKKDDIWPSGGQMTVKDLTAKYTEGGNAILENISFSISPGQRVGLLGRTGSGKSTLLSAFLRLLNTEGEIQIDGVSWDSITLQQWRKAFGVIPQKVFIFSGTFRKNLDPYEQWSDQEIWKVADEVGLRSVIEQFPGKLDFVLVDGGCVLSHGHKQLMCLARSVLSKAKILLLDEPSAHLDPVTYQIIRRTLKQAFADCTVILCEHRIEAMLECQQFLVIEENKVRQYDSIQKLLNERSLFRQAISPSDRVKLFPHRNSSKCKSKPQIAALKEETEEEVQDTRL
# Method: Short-circuit current measurements. ΔF508-CFTR-expressing FRT cells were cultured on Snapwell inserts for 7-9 days. For corrector testing, test compounds were incubated with FRT cells for 18-24 h at 37° C. prior to measurements. For potentiator testing, the FRT cells were incubated for 18-24 h at 27° C. prior to measurements. The basolateral solution contained 130 mM NaCl, 2.7 mM KCl, 1.5 mM KH2PO4, 1 mM CaCl2, 0.5 mM MgCl2, 10 mM glucose, and 10 mM Na-HEPES (pH 7.3). In the apical bathing solution, 65 mM NaCl was replaced by Na gluconate, and CaCl2 was increased to 2 mM. Solutions were bubbled with air and maintained at 37° C. The basolateral membrane was permeabilized with 250 μg/ml amphotericin B. Hemichambers were connected to a DVC-1000 voltage clamp (World Precision Instruments Inc.) via Ag/AgCl electrodes and 1 M KCl agar bridges for recording of short-circuit current.
# Short-circuit current was measured as a definitive electrophysiological assay to verify Compound 22 corrector action. Apical membrane chloride current was measured in ΔF508-CFTR expressing FRT cells after basolateral membrane permeabilization and in the presence of a transepithelial chloride gradient (apical, 65 mM; basolateral, 130 mM). In FIG. 3C, incubation with Corr-4a (5 μM) is shown as reference (right). Forskolin (20 μM), genistein (50 μM) and CFTRinh-172 (10 μM) were added where indicated. […] FIG. 3D summarizes Compound 22 concentration dependence data from short-circuit current studies. […]
# Short-circuit current was measured in an electrophysiology assay to verify corrector activity. Apical membrane chloride current was measured in ΔF508-CFTR expressing FRT cells after basolateral membrane permeabilization and in the presence of a transepithelial chloride gradient. […] To assay potentiator activity apical membrane chloride current was measured after low-temperature rescue, in response to CP-3 addition. CP-3 concentration-dependent increases in apical membrane current were measured in the presence of 5 μM forskolin. […]
# ΔF508-CFTR [2] = molecular target: T1, ΔF508-CFTR; assay: Corrector assay, YFP fluorescence plate reader iodide influx in ΔF508-CFTR expressing FRT cells; details: for Corrector Vmax / Corrector EC50 / EC50: 18-24 h with compound at 37° C., forskolin 20 μM + genistein 50 μM
# Method: (§1) Screening procedures. Screening of compounds for activity was carried out using a Beckman Coulter platform equipped with FLUOstar fluorescence plate readers (Optima; BMG Labtech) with dual syringe pumps and 500±10 nm excitation and 535±15 nm emission filters (Chroma Corp.). For the corrector assay, FRT cells were grown at 37° C./5% CO2 for 18-24 h and then incubated for 18-24 h with 100 μL of medium containing test compounds (25 μM final concentration). At the time of the assay, cells were washed with PBS and then incubated for 10 min with PBS containing forskolin (20 μM) and genistein (50 μM). For the potentiator assay, FRT cells were grown at 37° C./5% CO2 for 18-24 h and then for 18-24 h at 27° C. At the time of the assay, cells were washed with PBS and then incubated for 10 min with PBS (50 μL) containing forskolin (20 μM) and test compound (0-25 μM final concentration). For both the corrector and potentiator assays, each well was assayed individually for I^− influx by recording fluorescence continuously (200 ms per point) for 2 s (baseline) and then for 12 s after rapid addition of 165 μL PBS in which 137 mM Cl^− was replaced by I^−. Initial I^− influx rate was computed by fitting the final 11.5 seconds of the data to an exponential for extrapolation of initial slope, which was normalized for background-subtracted initial fluorescence. All compound plates contained negative controls and positive controls (10 μM Corr-4a for corrector assay; 50 μM genistein for potentiator assay).
# (§2) Screening of about 110,000 small molecules was done to identify new ΔF508-CFTR corrector scaffolds having high correction efficiency and/or having independent potentiator activity. […] FRT cells co-expressing human ΔF508-CFTR and a halide-sensing YFP were incubated with test compounds at 37° C. (corrector assay) or 27° C. (potentiator assay). ΔF508-CFTR function was assayed in a plate reader from YFP fluorescence quenching in response to iodide addition in the presence of forskolin (20 μM) plus genistein (50 μM) for corrector assay, or forskolin (20 μM) alone for potentiator assay. As shown in FIG. 1A (left), primary screening for corrector activity was done using a cell-based fluorescence assay of iodide influx in which FRT cells expressing ΔF508-CFTR and an iodide-sensitive YFP were incubated with test compounds at 10 μM for 18-24 h prior to assay. Iodide influx was measured by addition of extracellular iodide in the presence of a potentiator (50 μM genistein) and cAMP agonist (20 μM forskolin). Compound efficacy and potency (from concentration-dependence studies) in the corrector assay were compared to reference bithiazole Corr-4a (10 μM) and to low-temperature rescued cells. Active compounds were counter-screened for potentiator activity (FIG. 1A, right) in which iodide influx was measured in the ΔF508-CFTR expressing FRT cells after low-temperature rescue and in the presence of 20 μM forskolin.
# (§3) Screening procedures. Plate reader activity assay was carried out using a Beckman Coulter platform containing a robotic arm, CO2 incubator containing microplate carousel, plate-washer, liquid handling work station, bar code reader, de-lidding station, plate sealer, and FLUOstar fluorescence plate readers (Optima; BMG LABTECH Gmbh), equipped with dual syringe pumps and 500±10 nm excitation and 535±15 nm emission filters (Chroma Corp.). For the corrector assay, ΔF508-CFTR-expressing FRT cells were grown at 37° C. (90% humidity; 5% CO2) for 18-24 h and then incubated for 18-24 h with 100 μL of medium containing test compounds (0-25 μM final concentration). At the time of the assay, cells were washed with PBS and then incubated for 10 min with PBS containing forskolin (20 μM) and genistein (50 μM). For the potentiator assay, FRT cells were grown at 37° C. (90% humidity; 5% CO2) for 18-24 h and then for 18-24 h at 27° C. […]
# ΔF508-CFTR [3] = molecular target: T1, ΔF508-CFTR; assay: Potentiator assay, YFP fluorescence plate reader iodide influx in low-temperature rescued ΔF508-CFTR expressing FRT cells; details: forskolin 20 μM + test compound
# Method: as §1, §2, §3
# [4] = Table VIII, FRT cells 18-24 h at 27° C., I− influx
# [5] = Table VIII, FRT cells, I− influx
# [6] = Table IX, additional experiments, 18-24 h at 27° C.
# [7] = Table IX, additional experiments
Structure (SMILES),EC50 (ΔF508-CFTR [3]; [6]) [µM],Potentiator Vmax (ΔF508-CFTR [3]; [6]),Corrector Vmax (ΔF508-CFTR [2]; [7]),EC50 (ΔF508-CFTR [2]; [7]) [µM],other results
COc1ccc(C(=O)NCCNc2nc3cc(C)cc(C)c3cc2C#N)cc1 [Compound CP3],,,,,"apical membrane current (corrector) (ΔF508-CFTR [1]): increase in apical membrane current; corrector and potentiator activities, in words (ΔF508-CFTR [2]; concentration-dependence in corrector and potentiator I− influx assays (FIG. 2, FIG. 7)): both corrector and potentiator activities"
COc1ccc(C(=O)N2CCN(c3nc4cc(C)cc(C)c4cc3C#N)CC2)cc1 [drawing 154],,,,,EC50 (ΔF508-CFTR [3]; [4]): 1.3 µM; Potentiator Vmax (ΔF508-CFTR [3]; [4]): 281 µM/s; Corrector Vmax (ΔF508-CFTR [2]; [5]): inactive
Cc1cc(C)c2cc(C#N)c(N3CCN(C(=O)c4ccccn4)CC3)nc2c1 [drawing 155],,,,,Potentiator Vmax (ΔF508-CFTR [3]; [4]): 102 µM/s; Corrector Vmax (ΔF508-CFTR [2]; [5]): inactive
COc1cccc(C(=O)NCCCNc2nc3cc(C)cc(C)c3cc2C#N)c1 [drawing 159],,,,,EC50 (ΔF508-CFTR [3]; [4]): 4.6 µM; Potentiator Vmax (ΔF508-CFTR [3]; [4]): 147 µM/s; Corrector Vmax (ΔF508-CFTR [2]; [5]): 134 µM/s
COc1ccc(C(=O)NCCCNc2nc3cc(C)cc(C)c3cc2C#N)cc1 [drawing 160],,,,,EC50 (ΔF508-CFTR [3]; [4]): 5 µM; Potentiator Vmax (ΔF508-CFTR [3]; [4]): 231 µM/s; Corrector Vmax (ΔF508-CFTR [2]; [5]): 112 µM/s
Cc1cc(C)c2cc(C#N)c(NCCCNC(=O)c3cccnc3)nc2c1 [drawing 162],,,,,EC50 (ΔF508-CFTR [3]; [4]): 16 µM; Potentiator Vmax (ΔF508-CFTR [3]; [4]): 115 µM/s; Corrector EC50 (ΔF508-CFTR [2]; [5]): inactive; Corrector Vmax (ΔF508-CFTR [2]; [5]): inactive
COc1ccccc1C(=O)NCCNc1nc2cc(C)cc(C)c2cc1C#N [drawing 165],,154 µM/s,114 µM/s,11 ± 0.9,
Cc1cc(C)c2cc(C#N)c(NCCNC(=O)c3ccccn3)nc2c1 [drawing 167],1.2 ± 0.4,80 µM/s,inactive,,Corrector EC50 (ΔF508-CFTR [2]; [7]): inactive
COc1ccccc1C(=O)N1CCN(c2nc3cc(C)cc(C)c3cc2C#N)CC1 [drawing 170],1 ± 0.3,129 µM/s,inactive,,Corrector EC50 (ΔF508-CFTR [2]; [7]): inactive
COc1ccc(C(=O)NCCCNc2nc3cc(C)cc(C)c3cc2C#N)cc1 [drawing 178],,231 µM/s,112 µM/s,4.3 ± 0.2,
Cc1cc(C)c2cc(C#N)c(NCCCNC(=O)c3ccccn3)nc2c1 [drawing 179],,233 µM/s,inactive,,
Cc1cc(C)c2cc(C#N)c(NCCCNC(=O)c3ccncc3)nc2c1 [drawing 181],13.2 ± 0.4,53 µM/s,61 µM/s,8.2 ± 0.4,
COc1ccc(C(=O)NCCNc2nc3cc(C)cc(C)c3cc2C#N)cc1OC [drawing 185],48 ± 5,216 µM/s,380 µM/s,1.5 ± 0.4,

# Now from value to molecule, other results behind:
EC50 (ΔF508-CFTR [3]; [6]) [µM],Potentiator Vmax (ΔF508-CFTR [3]; [6]),Corrector Vmax (ΔF508-CFTR [2]; [7]),EC50 (ΔF508-CFTR [2]; [7]) [µM],Structure (SMILES),other results
5.9 ± 0.5,216 µM/s,300 µM/s,2.2 ± 0.3,COc1cccc(C(=O)NCCNc2nc3cc(C)cc(C)c3cc2C#N)c1 [drawing 164],
,181 µM/s,172 µM/s,,COc1ccc(C(=O)NCCNc2nc3cc(C)cc(C)c3cc2C#N)cc1 [drawing 166],
13.2 ± 0.6,242 µM/s,151 µM/s,2.7 ± 0.6,Cc1cc(C)c2cc(C#N)c(NCCNC(=O)c3cccnc3)nc2c1 [drawing 168],
10 ± 3.1,220 µM/s,176 µM/s,7.3 ± 0.8,Cc1cc(C)c2cc(C#N)c(NCCNC(=O)c3ccncc3)nc2c1 [drawing 169],
,200 µM/s,inactive,,COc1cccc(C(=O)N2CCN(c3nc4cc(C)cc(C)c4cc3C#N)CC2)c1 [drawing 171],Corrector EC50 (ΔF508-CFTR [2]; [7]): inactive
,281 µM/s,inactive,,COc1ccc(C(=O)N2CCN(c3nc4cc(C)cc(C)c4cc3C#N)CC2)cc1 [drawing 172],Corrector EC50 (ΔF508-CFTR [2]; [7]): inactive
7.4 ± 0.3,102 µM/s,inactive,,Cc1cc(C)c2cc(C#N)c(N3CCN(C(=O)c4ccccn4)CC3)nc2c1 [drawing 173],Corrector EC50 (ΔF508-CFTR [2]; [7]): inactive
,inactive,inactive,,Cc1cc(C)c2cc(C#N)c(N3CCN(C(=O)c4cccnc4)CC3)nc2c1 [drawing 174],Potentiator EC50 (ΔF508-CFTR [3]; [6]): inactive; Corrector EC50 (ΔF508-CFTR [2]; [7]): inactive
,147 µM/s,134 µM/s,,COc1cccc(C(=O)NCCCNc2nc3cc(C)cc(C)c3cc2C#N)c1 [drawing 177],
,115 µM/s,140 µM/s,3 ± 0.5,Cc1cc(C)c2cc(C#N)c(NCCCNC(=O)c3cccnc3)nc2c1 [drawing 180],
3.4 ± 0.5,70 µM/s,88 µM/s,2.7 ± 0.5,COc1ccc(C(=O)NCCNc2nc3cc(C)cc(C)c3cc2C#N)nc1 [drawing 186],
